US20160152679A1, “RELAXIN-LIKE COMPOUNDS AND USES THEREOF” (ANGION BIOMEDICA CORP., priority 2012, published 2016)

Tested on: parental HEK-293T cells
Test: cAMP-Glo assay in parental HEK-293T cells lacking RXFP1
Format: cell-based
Details: parental HEK-293T cells (lack RXFP1); relaxin 10 ng/mL or compound 10 µg/mL; 30 or 60 min

Substance: relaxin
- cAMP response in parental cells: no cAMP response
